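Step 1: Grow cells in 96-well plates. Step 2: Expose to compound for 48 hours at 5 concentrations. Step 3: Interpolate endpoints linearly; if unreached, use highest concentration. Here, GI50 denotes the concentration required for 50% inhibition of growth. Definition used: TGI = concentration required for complete inhibition of growth.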
Tests used:
Assay in all cases: NCI anticancer screen, dose series, 48 h
CAKI-1 renal = system: CAKI-1 renal
COLO 205 colon = system: COLO 205 colon
HCC-2998 colon = system: HCC-2998 colon
HCT-116 colon = system: HCT-116 colon
HL-60(TB) leukemia = system: HL-60(TB) leukemia
HOP-62 NSCLC = system: HOP-62 NSCLC
K-562 leukemia = system: K-562 leukemia
LOX IMVI melanoma = system: LOX IMVI melanoma
NCI-H226 lung = system: NCI-H226 lung
NCI-H460 lung = system: NCI-H460 lung
NCI/ADR-RES ovarian = system: NCI/ADR-RES ovarian
OVCAR-5 ovarian = system: OVCAR-5 ovarian
SK-MEL-28 melanoma = system: SK-MEL-28 melanoma
SK-MEL-5 melanoma = system: SK-MEL-5 melanoma
SN12C renal = system: SN12C renal
SNB-19 CNS = system: SNB-19 CNS
T-47D breast = system: T-47D breast

## COC(=O)[C@@H]1C[C@@H]2c3ccccc3N(S(=O)(=O)c3ccccc3)[C@@H]2N1C(=O)OC
CAKI-1 renal
  TGI: > 100 µM
COLO 205 colon
  TGI: > 100 µM
HCC-2998 colon
  TGI: > 100 µM
HCT-116 colon
  TGI: > 100 µM
HL-60(TB) leukemia
  TGI: > 100 µM
HOP-62 NSCLC
  TGI: > 100 µM
K-562 leukemia
  TGI: > 100 µM
LOX IMVI melanoma
  TGI: > 100 µM
NCI-H226 lung
  TGI: > 100 µM
NCI-H460 lung
  TGI: > 100 µM
NCI/ADR-RES ovarian
  TGI: > 100 µM
OVCAR-5 ovarian
  TGI: > 100 µM
SK-MEL-28 melanoma
  TGI: > 100 µM
SK-MEL-5 melanoma
  TGI: > 100 µM
SN12C renal
  TGI: > 100 µM
SNB-19 CNS
  TGI: > 100 µM

## Cc1cc(OCC(=O)N/N=C/C(Br)=C/c2ccccc2)nc(SCC(=O)N/N=C/C(Br)=C/c2ccccc2)n1
CAKI-1 renal
  TGI: > 100 µM
COLO 205 colon
  TGI: > 100 µM
HCC-2998 colon
  TGI: 82.9 µM
HCT-116 colon
  TGI: > 100 µM
HL-60(TB) leukemia
  TGI: > 100 µM
HOP-62 NSCLC
  TGI: > 100 µM
K-562 leukemia
  TGI: > 100 µM
LOX IMVI melanoma
  TGI: > 100 µM
NCI-H460 lung
  TGI: > 100 µM
NCI/ADR-RES ovarian
  TGI: > 100 µM
OVCAR-5 ovarian
  TGI: > 100 µM
SK-MEL-28 melanoma
  TGI: > 100 µM
SK-MEL-5 melanoma
  TGI: > 100 µM
SN12C renal
  TGI: > 100 µM
SNB-19 CNS
  TGI: > 100 µM

## C=C(Cl)C(=C)CCC(Cl)C(C)C (stereo not drawn)
CAKI-1 renal
  TGI: > 100 µM
COLO 205 colon
  TGI: > 100 µM
HCC-2998 colon
  TGI: > 100 µM
HCT-116 colon
  TGI: > 100 µM
HL-60(TB) leukemia
  TGI: > 100 µM
HOP-62 NSCLC
  TGI: > 100 µM
K-562 leukemia
  TGI: > 100 µM
LOX IMVI melanoma
  TGI: > 100 µM
NCI-H226 lung
  TGI: > 100 µM
NCI-H460 lung
  TGI: > 100 µM
NCI/ADR-RES ovarian
  TGI: > 100 µM
OVCAR-5 ovarian
  TGI: > 100 µM
SK-MEL-28 melanoma
  TGI: > 100 µM
SK-MEL-5 melanoma
  TGI: > 100 µM
SN12C renal
  TGI: > 100 µM
SNB-19 CNS
  TGI: > 100 µM

## Cn1c2c(c3ccccc31)CC(=S)N1CCCC(CC2O)C1 (stereo not drawn)
CAKI-1 renal
  TGI: > 100 µM
COLO 205 colon
  TGI: > 100 µM
HCC-2998 colon
  TGI: > 100 µM
HCT-116 colon
  TGI: > 100 µM
K-562 leukemia
  TGI: > 100 µM
LOX IMVI melanoma
  TGI: > 100 µM
NCI-H226 lung
  TGI: > 100 µM
NCI-H460 lung
  TGI: > 100 µM
NCI/ADR-RES ovarian
  TGI: > 100 µM
SK-MEL-28 melanoma
  TGI: > 100 µM
SK-MEL-5 melanoma
  TGI: > 100 µM
SN12C renal
  TGI: > 100 µM
SNB-19 CNS
  TGI: > 100 µM
T-47D breast
  TGI: > 100 µM

## Nc1nc(Cl)c2nnn(CC3CCC(CO)C3)c2n1 (stereo not drawn)
CAKI-1 renal
  TGI: > 100 µM
COLO 205 colon
  TGI: > 100 µM
HCC-2998 colon
  TGI: > 100 µM
HCT-116 colon
  TGI: > 100 µM
HOP-62 NSCLC
  TGI: > 100 µM
K-562 leukemia
  TGI: > 100 µM
LOX IMVI melanoma
  TGI: > 100 µM
NCI-H226 lung
  TGI: > 100 µM
NCI/ADR-RES ovarian
  TGI: > 100 µM
OVCAR-5 ovarian
  TGI: > 100 µM
SK-MEL-28 melanoma
  TGI: > 100 µM
SK-MEL-5 melanoma
  TGI: > 100 µM
SN12C renal
  TGI: > 100 µM
SNB-19 CNS
  TGI: > 100 µM
T-47D breast
  TGI: > 100 µM

## Cc1c(C)c(S(=O)(=O)N(CCCN)OCCCN)c(C)c2c1OC(C)(C)C2
CAKI-1 renal
  TGI: > 100 µM
COLO 205 colon
  TGI: 32.5 µM
HCC-2998 colon
  TGI: 40.9 µM
HCT-116 colon
  TGI: > 100 µM
HOP-62 NSCLC
  TGI: > 100 µM
K-562 leukemia
  TGI: > 100 µM
LOX IMVI melanoma
  TGI: 34.9 µM
NCI-H226 lung
  TGI: > 100 µM
NCI-H460 lung
  TGI: > 100 µM
NCI/ADR-RES ovarian
  TGI: > 100 µM
OVCAR-5 ovarian
  TGI: 61.6 µM
SK-MEL-28 melanoma
  TGI: > 100 µM
SK-MEL-5 melanoma
  TGI: > 100 µM
SN12C renal
  TGI: > 100 µM
SNB-19 CNS
  TGI: 63.5 µM
T-47D breast
  TGI: > 100 µM

## O=C(CCN1CCOCC1)Nc1ccc2sc3ccccc3c(=O)c2n1
CAKI-1 renal
  TGI: 63.8 µM
COLO 205 colon
  TGI: > 100 µM
HCC-2998 colon
  TGI: > 100 µM
HCT-116 colon
  TGI: > 100 µM
HL-60(TB) leukemia
  TGI: > 100 µM
HOP-62 NSCLC
  TGI: > 100 µM
K-562 leukemia
  TGI: > 100 µM
LOX IMVI melanoma
  TGI: > 100 µM
NCI-H460 lung
  TGI: > 100 µM
NCI/ADR-RES ovarian
  TGI: > 100 µM
OVCAR-5 ovarian
  TGI: > 100 µM
SK-MEL-28 melanoma
  TGI: > 100 µM
SK-MEL-5 melanoma
  TGI: 82.5 µM
SN12C renal
  TGI: > 100 µM
SNB-19 CNS
  TGI: > 100 µM
T-47D breast
  TGI: > 100 µM

## [N-]=[N+]=NC(CBr)c1cn([C@H]2C[C@H](O)[C@@H](CO)O2)c(=O)[nH]c1=O (stereo partly drawn)
CAKI-1 renal
  TGI: > 100 µM
COLO 205 colon
  TGI: > 100 µM
HCC-2998 colon
  TGI: > 100 µM
HCT-116 colon
  TGI: > 100 µM
HL-60(TB) leukemia
  TGI: > 100 µM
HOP-62 NSCLC
  TGI: > 100 µM
K-562 leukemia
  TGI: > 100 µM
LOX IMVI melanoma
  TGI: > 100 µM
NCI-H226 lung
  TGI: > 100 µM
NCI-H460 lung
  TGI: > 100 µM
OVCAR-5 ovarian
  TGI: > 100 µM
SK-MEL-28 melanoma
  TGI: > 100 µM
SK-MEL-5 melanoma
  TGI: > 100 µM
SN12C renal
  TGI: > 100 µM
SNB-19 CNS
  TGI: > 100 µM

## CCOC(=O)/C=C1\c2ccccc2C(=O)N1CC(=O)OCC
CAKI-1 renal
  TGI: > 100 µM
COLO 205 colon
  TGI: > 100 µM
HCT-116 colon
  TGI: > 100 µM
HOP-62 NSCLC
  TGI: > 100 µM
K-562 leukemia
  TGI: > 100 µM
LOX IMVI melanoma
  TGI: > 100 µM
NCI-H226 lung
  TGI: > 100 µM
NCI/ADR-RES ovarian
  TGI: > 100 µM
OVCAR-5 ovarian
  TGI: > 100 µM
SK-MEL-28 melanoma
  TGI: > 100 µM
SK-MEL-5 melanoma
  TGI: > 100 µM
SN12C renal
  TGI: > 100 µM
SNB-19 CNS
  TGI: > 100 µM
T-47D breast
  TGI: > 100 µM

## O=C(c1cccc(C(=O)c2ccc3c4c(cccc24)C(=O)N(c2ccccc2)C3=O)c1)c1ccc2c3c(cccc13)C(=O)N(c1ccccc1)C2=O
CAKI-1 renal
  TGI: > 100 µM
COLO 205 colon
  TGI: > 100 µM
HCC-2998 colon
  TGI: > 100 µM
HCT-116 colon
  TGI: > 100 µM
HOP-62 NSCLC
  TGI: > 100 µM
K-562 leukemia
  TGI: > 100 µM
LOX IMVI melanoma
  TGI: > 100 µM
NCI-H226 lung
  TGI: > 100 µM
NCI-H460 lung
  TGI: > 100 µM
NCI/ADR-RES ovarian
  TGI: > 100 µM
OVCAR-5 ovarian
  TGI: > 100 µM
SK-MEL-28 melanoma
  TGI: > 100 µM
SK-MEL-5 melanoma
  TGI: > 100 µM
SN12C renal
  TGI: > 100 µM
SNB-19 CNS
  TGI: > 100 µM

## CC1OC(OC2C(O)COC(OC3C(C)OC(OC4C(OC(=O)[C@]56CCC(C)(C)C[C@@H]5C5=CCC7[C@@]8(C)C[C@H](O)[C@H](OC9OC(CO)C(O)C(OC%10OC(CO)C(O)C(O)C%10O)C9O)[C@@](C)(CO)[C@@H]8CC[C@@]7(C)[C@]5(C)CC6)OCC(O)C4O)C(O)C3O)C2O)C(O)C(O)C1O (stereo partly drawn)
CAKI-1 renal
  TGI: 19.1 µM
COLO 205 colon
  TGI: 18.1 µM
HCC-2998 colon
  TGI: 32.9 µM
HCT-116 colon
  TGI: 32.7 µM
HOP-62 NSCLC
  TGI: 28.8 µM
K-562 leukemia
  TGI: > 100 µM
LOX IMVI melanoma
  TGI: 35 µM
NCI-H226 lung
  TGI: 42.9 µM
NCI-H460 lung
  TGI: 40.2 µM
NCI/ADR-RES ovarian
  TGI: 31.9 µM
OVCAR-5 ovarian
  TGI: 27 µM
SK-MEL-28 melanoma
  TGI: 22.9 µM
SK-MEL-5 melanoma
  TGI: 30.3 µM
SN12C renal
  TGI: 25.2 µM
SNB-19 CNS
  TGI: 30.4 µM
T-47D breast
  TGI: 35.5 µM

## O=C(O)CCCOc1cc(-c2ccccc2F)nc2cc3c(cc12)OCO3
CAKI-1 renal
  TGI: > 100 µM
COLO 205 colon
  TGI: 27.4 µM
HCC-2998 colon
  TGI: > 100 µM
HCT-116 colon
  GI50: 3.99 µM
  TGI: > 100 µM
HOP-62 NSCLC
  TGI: > 100 µM
LOX IMVI melanoma
  TGI: > 100 µM
NCI-H226 lung
  GI50: 8.51 µM
  TGI: > 100 µM
NCI/ADR-RES ovarian
  TGI: > 100 µM
OVCAR-5 ovarian
  TGI: > 100 µM
SK-MEL-28 melanoma
  TGI: > 100 µM
SK-MEL-5 melanoma
  TGI: > 100 µM
SN12C renal
  TGI: > 100 µM
T-47D breast
  TGI: > 100 µM

## C=C1C(=O)O[C@H]2[C@H]1CC(=O)/C(C)=C/CC[C@@]1(C)O[C@@H]21
CAKI-1 renal
  TGI: 1.28 µM
COLO 205 colon
  TGI: 0.708 µM
HCC-2998 colon
  TGI: 6.02 µM
HCT-116 colon
  TGI: 2.51 µM
HOP-62 NSCLC
  TGI: 22 µM
K-562 leukemia
  GI50: 0.368 µM
  TGI: 1.68 µM
LOX IMVI melanoma
  TGI: 1.47 µM
NCI-H226 lung
  TGI: 19.8 µM
NCI-H460 lung
  TGI: 29.8 µM
NCI/ADR-RES ovarian
  TGI: 10.8 µM
OVCAR-5 ovarian
  TGI: 6.87 µM
SK-MEL-28 melanoma
  TGI: 1.3 µM
SK-MEL-5 melanoma
  TGI: 2.63 µM
SN12C renal
  TGI: 3.93 µM
SNB-19 CNS
  TGI: 13.8 µM
T-47D breast
  TGI: 2.93 µM

## COc1ccc2c(c1)CCC1=CC3(CCC12C)SCCS3 (stereo not drawn)
CAKI-1 renal
  TGI: > 10 µM
COLO 205 colon
  TGI: > 10 µM
HCC-2998 colon
  TGI: > 10 µM
HL-60(TB) leukemia
  TGI: 8.36 µM
HOP-62 NSCLC
  TGI: > 10 µM
K-562 leukemia
  TGI: > 10 µM
LOX IMVI melanoma
  TGI: > 10 µM
NCI/ADR-RES ovarian
  TGI: > 10 µM
SK-MEL-28 melanoma
  TGI: > 10 µM
SK-MEL-5 melanoma
  TGI: > 10 µM
SN12C renal
  TGI: > 10 µM
SNB-19 CNS
  TGI: > 10 µM
T-47D breast
  TGI: > 10 µM

Reference: PubChem BioAssay (NCI)
